Laboratory results reported in US20250236655A1, “PROCESS FOR THE PREPARATION OF LIRAGLUTIDE” (SHILPA PHARMA LIFESCIENCES LIMITED, priority 2024, published 2025).

Test: storage stability of liraglutide obtained by the present process
Format: physicochemical
Conditions: liraglutide of purity greater or equal to 99.5% obtained as per the present process

stable to handle and store without any significant or measurable change in its morphology and physicochemical characteristics: more than 6 months
Substance: Liraglutide
